The source of these data is patent US20040106626A1, “6-Membered unsaturated heterocyclic compounds useful for selective inhibition of the coagulation cascade” (Pharmacia Corporation, priority 2001, published 2004).

pIC50: −log10 of the molar value. Several values for one entry are separate records, joined by “and”; a condition that tells them apart may be missing. Equal entries are not always repeated. Where two headings read alike, the source gives them in different places.

In data set [1] the test system is prothrombin time. The data set can be described thus: Prothrombin time in deep vein thrombosis model. The following applies: non-human primate, n=4. In kind it is in vivo, Macaca fascicularis. The method, then:
The prothrombin time (PT) assay is a clotting assay that is used to determine deficiencies of clotting factor activity in the extrinsic pathway. The assay measures time to clotting after the addition of thromboplastin (human tissue factor). Normal human pooled plasma is incubated with 100 uM compound or saline in a coagulation machine. Thromboplastin is added and time to clotting is measured. Compounds with greater than 3×normal PT of 11.0 seconds are further analyzed by concentration response to determine at what concentration the prothrombin time is prolonged by 2×normal.
(§1) Non-human primates (Macaca fascicularis) are lightly anesthetized with ketamine to facilitate placement of an endotracheal tube and a femoral venous catheter. Animals are put into and maintained in a deep plane of anesthesia using pentobarbital via the femoral vein cannula. A jugular vein is cannulated for infusion of drug and a carotid artery is cannulated for blood sampling and for monitoring hemodynamic parameters.
The table below depicts the effects of Aspirin coadministered with a compound of the present invention (compounds 54 and 55 are salts of the compound tested) on thrombus formation, prothrombin time and bleeding time in a non-human primate model of deep vein thrombosis.

Data set [2] relates to thrombus formation in vena cava. As to the kind of experiment: Deep vein thrombosis model, thrombus accumulation on threads in vena cava. In kind it is in vivo, Macaca fascicularis. The following applies: non-human primate, n=4.
Excerpt: This model measures the accumulation of thrombus on a set of four threads (4-0 surgical silk) that are introduced into the vena cava of a non-human primate. The device used to introduce the threads consists of a copper wire (12 cm) contained in a sheath of polyethylene tubing (9 cm). Four 4-0 surgical silk threads (3 cm) are tied to the end of the wire and retracted into the tubing. When the device is inserted into the iliac vein, the wire is advanced introducing the threads into the vena cava between the bifurcation and the left renal vein.
as §1
The abdominal cavity is opened and an ultrasonic flow probe placed on the left iliac vein. The right iliac vein (RIV) is dissected free of surrounding tissue for a length of approximately 4 cm. The RIV is ligated approximately 4 cm distal to the bifurcation of the abdominal vena cava and a second ligature is placed, loosely, approximately 2 cm distal to the bifurcation. An incision is made in the RIV between the two ligatures, the device described above introduced into the iliac vein and the threads advanced into the vena cava. Every study consists of three thrombus measurements:
Control—Saline infusion. Threads are introduced and left in for 30 min, removed and thrombus weighed.
Treatment 1—Aspirin administered as a bolus or compound as an infusion. For aspirin treatment, aspirin is administered as a bolus and a 30 min equilibration period is allowed to assure the platelets are inhibited. For compound treatment, infusion is started and allowed to run for 30 min to reach steady-state blood levels of compound. Threads are introduced and left in for 30 min, removed and thrombus weighed;
Treatment 2—Compound administered as an infusion. Compound infusion is started and allowed to run for 30 min to reach steady-state blood levels of compound. Threads are introduced and left in for 30 min, removed and thrombus weighed.
During the 30 min equilibration/infusion periods of Treatment 1 and Treatment 2, a piece of tubing containing a copper wire, but no threads, is introduced into the vein to maintain the integrity of the vessel. After the threads have been in the vessel for 30 min, the entire device is removed from the vessel and the threads are cut from the device and weighed. The weight of the threads prior to insertion in the vessel is subtracted to get the net thrombus weight

Data set [3] relates to bleeding time. As to the kind of experiment: Bleeding time in deep vein thrombosis model. In kind it is in vivo, Macaca fascicularis. The note with it: non-human primate, n=4. The procedure:
To measure bleeding time, a blood pressure cuff is placed on the upper arm and inflated to 40 mm Hg. Two uniform cuts are made in the volar surface of the forearm, the blood from the cuts is collected onto a gauze pad every 30 sec. The time from when the cuts are made until the bleeding stops is considered the bleeding time. All gauze used to collect blood is placed in Drabkin's solution and the amount of blood lost from the bleeding time site is calculated based on the amount of hemoglobin measured in the Drabkin's solution.

In data set [4] the target is T1, Human thrombin (Homo sapiens, UniProt P00734).
T1 construct: converts prothrombin (II) to thrombin (IIa); purchased Calbiochem, La Jolla, Calif
As to the kind of experiment: Thrombin assay (chromogenic substrate). In kind it is biochemical. Summed up:
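Percent inhibition derived by comparing OD405 nm of compound-treated and control samples. Thrombin cleavage of a p-nitroanilide chromogenic substrate provides the signal.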

The target in data set [5] is T2, Human factor Xa (Homo sapiens, UniProt P00742).
T2 construct: purchased Enzyme Research Laboratories, South Bend Ind
T2 sequence (P00742 235-488 limits assumed): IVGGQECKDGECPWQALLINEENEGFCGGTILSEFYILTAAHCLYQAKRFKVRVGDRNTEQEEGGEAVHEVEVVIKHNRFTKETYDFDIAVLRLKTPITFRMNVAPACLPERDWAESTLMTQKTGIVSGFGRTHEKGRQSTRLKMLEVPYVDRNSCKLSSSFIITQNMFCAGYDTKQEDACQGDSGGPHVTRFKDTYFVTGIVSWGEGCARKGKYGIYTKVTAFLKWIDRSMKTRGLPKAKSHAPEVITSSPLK
T2 sequence (P00742 41-179 limits assumed): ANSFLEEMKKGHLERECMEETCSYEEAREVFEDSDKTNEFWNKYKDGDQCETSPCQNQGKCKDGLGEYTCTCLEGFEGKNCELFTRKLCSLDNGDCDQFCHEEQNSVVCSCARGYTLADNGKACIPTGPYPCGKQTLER
As to the kind of experiment: Xa assay (chromogenic substrate S-2765). In kind it is biochemical. The note with it: reported only as less than or greater than 30 uM; read-out: Factor Xa (II) IC50. Summed up:
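Chromogenic readout: S-2765 hydrolysis (0.15 mM) by 0.3 nM human FXa was monitored at 405 nm after 60 min at room temperature, with a time-zero background read. Buffer: 50 mM Tris-HCl, pH 8.0, 100 mM NaCl, 0.1% BSA. Inhibition is relative to buffer-only controls.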

Data set [6] addresses T3, recombinant soluble tissue factor and recombinant human factor VIIa (TF-VIIa) (Homo sapiens, UniProt P08709).
T3 construct: conversion of coagulation factor VII to VIIa by factor Xa; purchased American Diagnostica, Greenwich CT; host or cells: soluble TF made in house in E. coli
As to the kind of experiment: TF-VIIa assay (chromogenic substrate hydrolysis). In kind it is biochemical. The note with it: reported only as less than or greater than 0.1 uM. In a few lines: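 Chromogenic read at OD405, compared with control for percent inhibition. Substrate N-methylsulfonyl-D-phe-gly-arg-p-nitroaniline at 0.4 mM is cleaved by recombinant human VIIa (2 nM) complexed with soluble TF (100 nM). Buffer: pH 8.0 Tris-HCl 50 mM, CaCl2 5 mM, NaCl 100 mM, BSA 0.1%.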

Data set [7] deals with Normal human pooled plasma. As to the kind of experiment: Prothrombin time (PT) clotting assay. In kind it is biochemical. The following applies: concentration at which prothrombin time is prolonged by 2x normal, reported as less than or greater than 50 uM. In a few lines: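 Normal human pooled plasma incubated with 100 uM compound or saline, then thromboplastin (human tissue factor) added and clotting time recorded in a coagulation machine. Compounds exceeding 3× normal PT (11.0 s) are titrated to find the concentration doubling PT.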

Setting [8] is: Aspirin bolus followed by compound infusion 50 μg/kg/min (coadministered).
The mark [9] stands for this setting: Aspirin bolus followed by compound infusion 100 μg/kg/min (coadministered).
Setting [10] is: compound infusion 100 μg/kg/min, no aspirin.
Where [11] appears, read: compound infusion 200 μg/kg/min, no aspirin.

T3 sequence (P08709 213-466 limits assumed): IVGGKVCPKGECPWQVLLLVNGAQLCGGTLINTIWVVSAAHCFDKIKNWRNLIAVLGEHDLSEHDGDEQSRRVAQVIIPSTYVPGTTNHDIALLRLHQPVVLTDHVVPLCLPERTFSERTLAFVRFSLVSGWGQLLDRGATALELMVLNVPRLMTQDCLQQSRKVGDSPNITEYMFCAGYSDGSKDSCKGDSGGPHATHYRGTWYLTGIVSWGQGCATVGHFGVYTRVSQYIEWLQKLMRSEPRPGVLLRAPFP
T3 sequence (P08709 61-212 limits assumed): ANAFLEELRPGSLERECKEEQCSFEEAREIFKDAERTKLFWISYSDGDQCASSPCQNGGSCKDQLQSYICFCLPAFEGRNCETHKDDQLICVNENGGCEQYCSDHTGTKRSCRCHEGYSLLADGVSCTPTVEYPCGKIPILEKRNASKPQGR
T3 sequence (P13726 33-251 partner limits assumed): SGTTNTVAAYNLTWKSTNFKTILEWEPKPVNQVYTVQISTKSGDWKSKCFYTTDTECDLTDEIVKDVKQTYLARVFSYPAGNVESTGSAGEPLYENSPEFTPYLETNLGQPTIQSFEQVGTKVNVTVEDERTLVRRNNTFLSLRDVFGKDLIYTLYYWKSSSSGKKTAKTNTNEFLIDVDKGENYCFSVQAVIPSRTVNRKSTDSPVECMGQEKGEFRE

With `CC(=O)Oc1ccccc1C(=O)O` [Aspirin, reference compound], in data set [1] (Aspirin bolus alone), the “Prothrombin Time” value is 11.8 s and 11.5 s. In data set [2] (Aspirin bolus alone), the “Net Thrombus Wt” value was 30.9 mg and 26.7 mg; the “Thrombus Wt: % Δ from Control” value is −12% and −4%. In addition, the “Bleeding Time” value in data set [3] (Aspirin bolus alone) was 4.6 min and 4.3 min.
With `CC(C)Nc1ncc(-c2cc(N)cc(O)c2)n(CC(=O)NCc2ccc(C(=N)N)cc2)c1=O` [Compounds 54 and 55], the “Prothrombin Time” value in data set [1] (setting [8]) was determined as 17.3 s; in data set [1] (setting [9]), 22.4 s; in data set [1] (setting [10]) it was 22.7 s; in data set [1] (setting [11]), 46.0 s. Also, the “Net Thrombus Wt” value in data set [2] (setting [8]) came to 19.5 mg; in data set [2] (setting [9]), 3.6 mg; in data set [2] (setting [10]), 15.3 mg; in data set [2] (setting [11]), 5.1 mg. For the same compound, the “Thrombus Wt: % Δ from Control” value in data set [2] (setting [8]) was −34%; in data set [2] (setting [9]), −89%; in data set [2] (setting [10]) it was −56%; in data set [2] (setting [11]), −85%. For the same compound, the “Bleeding Time” value in data set [3] (setting [8]) is on record as 4.1 min; in data set [3] (setting [9]) it was 4.7 min; in data set [3] (setting [11]), 3.9 min.
Usually pIC50 stands for −log10 of the IC50, conventionally taken in molar units. `CC(C)Nc1ncc(-c2cc(N)cc(OC(=O)NCc3ccccc3)c2)n(CC(=O)NCc2ccc(C(=N)N)cc2)c1=O.O=C(O)C(F)(F)F.O=C(O)C(F)(F)F` [Example 239]: the pIC50 in data set [4] (Thrombin (II) IC50, reported only as less than or greater than 30 uM) is less than 4.52; in data set [5], less than 4.52; in data set [6], greater than 7.00. Also, in data set [7], the “PT (Prothrombin time) 2xPT” value is less than 50.0 µM.
For the compound `CC[C@@H](C)NC(=O)c1cc(N)cc(-c2cnc(NC(C)C)c(=O)n2CC(=O)NCc2ccc(C(=N)N)cc2O)c1.O=C(O)C(F)(F)F` [Example 240], the pIC50 was less than 4.52 in data set [4] (reported only as less than or greater than 30 uM, read-out: Thrombin (II) IC50); less than 4.52 in data set [5]; greater than 7.00 in data set [6]. Moreover, the “PT (Prothrombin time) 2xPT” value in data set [7] was less than 50.0 µM.
